The subject of data set [1] is lentiviral particles with AZT-resistant RT mutant (eGFP) in HEK293T-mCat1 cells. Kind of data set: microbe, parasite or virus in culture. Type of data set: cell-based, HIV-1.
For data set [2], the system named is lentiviral particles with wild-type HIV-1 reverse transcriptase (mCherry) in HEK293T-mCat1 cells. Kind of data set: microbe, parasite or virus in culture. It is filed as cell-based.
A further data set can be described thus: in vitro. The settings on record: human.
The subject of another data set is HEK293T-mCat1 cells. The settings on record: 1 µM.
The subject of another data set is PM1-mCat1 cells. The data set is described as follows: Cytotoxicity determination (CellTiter-Glo) in PM1-mCat1 cell line. Type of data set: cell-based, human. To be noted: PM1-mCat1 viability relative to DMSO. On the technique in general: ATP-based viability assays read luminescence as a measure of living cells.
Data set [3] relates to ecotropic pseudo-typed lentiviral particles (luciferase) in PM1-mCat1 cells. The data set is described as follows: Luciferase-based viral integration assay using PM1-mCat1 cells.
The subject of data set [4] is luciferase lentiviral particles (wild-type RT) in HEK293T-mCat1 cells. The data set is described as follows: Luciferase-based screening using HEK293T-mCat1 cells. The settings on record: for Identified as active in the luciferase assay / Relative inhibition [%] of luciferase (wild-type RT): 1 µM; for Identified as active in the luciferase assay: second LOPAC screen; for Relative inhibition [%] of luciferase (wild-type RT): normalized to 1 µM AZT = 100% and DMSO = 0%, HEK293T-mCat1, 3 days.

The test system of data set [5] is HIV-1-derived lentiviral particles (wild-type RT and AZT-resistant RT mutant) in HEK293T-mCat1 cells. It is filed as cell-based. The settings on record: 1 µM.
Data set [6] concerns the target eGFP-encoding lentiviral vectors (mutant reverse transcriptase). Kind of data set: Flow-cytometry based inhibitor analysis, eGFP vector. Type of data set: cell-based, HIV-1. The settings on record: Figure S2, read-out: IC50 of the AZT-resistant mutant, FC-based analysis.
Data set [7] has as its target mCherry-encoding lentiviral vectors (wild-type reverse transcriptase). Kind of data set: Flow-cytometry based inhibitor analysis, mCherry vector. To be noted: Figure S2, read-out: IC50 of the wild-type virus, FC-based analysis. It is filed as cell-based, HIV-1.
In the next data set the test system is HIV. Details: method as in earlier work. To be noted: read-out: reported IC50; cited from earlier work.
[8] abbreviates: Human immunodeficiency virus 1, 48 h; read-out: Relative inhibition [%] of eGFP (mutant RT).
Where [9] appears, read: Human immunodeficiency virus 1, 48 h; read-out: Relative inhibition [%] of mCherry (wild-type RT).
[10] abbreviates: Human immunodeficiency virus 1, read-out: IC50 (in µM), viral integration assay.

As usually defined, the inhibition is the relative decrease from the control value, in per cent. As usually defined, the viability is a read-out of living cells in per cent, often relative to untreated cells. A lower viability goes with more harm to the cells.

Structures are written as SMILES. pIC50: −log10 of the molar value. Where a name gives a salt, the structure may show the parent alone. Read-outs that look alike come from different tables or passages of the source. Bounds are passed on as bounds.

Turning to `NC(=O)c1ncn([C@@H]2O[C@H](CO)[C@@H](O)[C@H]2O)n1` [Ribavirin], the results for the inhibition at 1 µM in data set [1] (setting [8]) and in [2] (setting [9]) were -73% and -21%, respectively. Besides, in “in vitro”, the viability at 1 µM was determined as 81%.

Turning to `Nc1ccn([C@H]2CC[C@@H](CO)O2)c(=O)n1` [2',3'-Dideoxycytidine], the values for the inhibition at 1 µM in [1] (setting [8]) and in data set [2] (setting [9]) were 99% and 100%, respectively. The compound further had a viability at 1 µM in “in vitro” of 7%.

In the case of `Nc1nccc2c1ncn2[C@@H]1O[C@H](CO)[C@@H](O)[C@H]1O` [3-Deazaadenosine], the “Relative inhibition [%] of eGFP (mutant RT)” value in data set [1] (1 µM) was -34%. Also, in data set [2] (1 µM), the “Relative inhibition [%] of mCherry (wild-type RT)” value (shortened to “Relative inhibition [%] of mCherry”) is given as -25%. Further, the “Viability [%]” value in the data set with HEK293T-mCat1 cells worked out at 85%.

For `O=C(Nc1ccccc1N1CCCCC1)c1cc(S(=O)(=O)N2CCOCC2)ccc1Cl` [T6098586, ClC1=C(C=C(C=C1)S(=O)(=O)N1CCOCC1)C(=O)NC1=C(C=CC=C1)N1CCCCC1], the “Concentration beyond which the compound is toxic (viability drops below 80%)” value in the data set on PM1-mCat1 cells is greater than 2000 nM. For the same compound, in [3] (setting [10]), the IC50 amounted to 1.78 µM.

Consider `Oc1ccc(C2CNCCc3c2cc(O)c(O)c3Cl)cc1` (stereo not shown) [Fenoldopam bromide], for which the inhibition at 1 µM in data set [1] (Human immunodeficiency virus 1, 48 h, read-out: Relative inhibition [%] of eGFP (mutant RT)) is 65%; in [2] (Human immunodeficiency virus 1, 48 h, read-out: Relative inhibition [%] of mCherry (wild-type RT)), 61%; in data set [4] (Human immunodeficiency virus 1, 72 h, read-out: Relative inhibition [%] of luciferase (wild-type RT)) it was -40%. In the data set “in vitro”, this compound gave a viability at 1 µM of 73%.

On to `Nc1nc2c(ncn2CCOCP(=O)(O)O)c(=O)[nH]1` [PMEG hydrate], for which the “Residual transduction rate, eGFP encoding lentiviral particles, microscopy” value in data set [1] is reported as 5%. In addition, in data set [1] (1 µM), the “Relative inhibition [%] of eGFP (mutant RT)” value is 70%. For the same compound, in data set [2], the “Residual transduction rate, mCherry encoding lentiviral particles, microscopy” value worked out at 30%. The “Relative inhibition [%] of mCherry” value in data set [2] (1 µM) was 94%. For the same compound, the “residual activity in the high-content screening” value in data set [5] turned out to be 5%. Besides, the pIC50 is 5.92 in [6], 6.25 in data set [7] and 6.70 in the data set with HIV. The “Viability [%]” value in the data set on HEK293T-mCat1 cells was 54%. Further, in [4], the “Identified as active in the luciferase assay” value (from here on “Identified as active”) is “again identified”. In data set [4], the “Relative inhibition [%] of luciferase (wild-type RT)” value amounted to 156%.

Turning to `Cl.Nc1ccn([C@@H]2O[C@H](CO)[C@@H](O)[C@@H]2O)c(=O)n1` [Cytosine-1-beta-D-arabino-furanoside hydrochloride], the “Relative inhibition [%] of eGFP (mutant RT)” value in [1] (1 µM) was found to be 95%. Besides, the “Relative inhibition [%] of mCherry” value in data set [2] (1 µM) is 98%. The “Viability [%]” value with HEK293T-mCat1 cells is 38%. Also, in [4], the “Identified as active” value is recorded as “again identified” and the “Relative inhibition [%] of luciferase (wild-type RT)” value is 211%.

For the compound `Cc1c(O)cccc1C(=O)N[C@@H](CSc1ccccc1)[C@H](O)CN1C[C@H]2CCCC[C@H]2C[C@H]1C(=O)NC(C)(C)C` [Nelfinavir mesylate hydrate], the results for the inhibition at 1 µM in data set [1] (setting [8]) and in data set [2] (setting [9]) were 49% and 90%, respectively. In the data set “in vitro”, this compound returned a viability at 1 µM of 26%.

Consider `Nc1nc2c(ncn2COCCO)c(=O)[nH]1` [Acyclovir], for which the inhibition at 1 µM is -33% in data set [1] (setting [8]) and 41% in data set [2] (setting [9]). For the same compound, in the data set “in vitro”, the viability at 1 µM was found to be 88%.

`CC(C)CCn1cnc2c1c(=O)n(CC(=O)NC1CC1)c(=O)n2Cc1ccccc1` [T5351795, CC(C)CCN1C=NC2=C1C(=O)N(CC(=O)NC1CC1)C(=O)N2CC1=CC=CC=C1]: the IC50 in data set [3] (setting [10]) worked out at 4.64 µM.

In the case of `CC(=O)c1ccc(NC(=O)CNc2ccccc2-c2ccccc2)cc1` [T5941648, CC(=O)C1=CC=C(NC(=O)CNC2=C(C=CC=C2)C2=CC=CC=C2)C=C1], the IC50 in data set [3] (setting [10]) stood at 7.85 µM.

Consider `CC(=O)OCC(CCn1cnc2cnc(N)nc21)COC(C)=O` [Famciclovir], for which the inhibition at 1 µM in data set [1] (setting [8]) and in data set [2] (setting [9]) was 100% in each case. In addition, the viability at 1 µM in “in vitro” stood at 7%.

For `CCNC(=O)COC(=O)c1c(C)c(-c2cccc(Cl)c2)nc2ccccc12` [T0516-3343, CCNC(=O)COC(=O)C1=C2C=CC=CC2=NC(=C1C)C1=CC(Cl)=CC=C1], the IC50 in data set [3] (read-out: IC50 (in µM), viral integration assay, Table S3, PM1-mCat1, dose-response hit profiling) stood at 6.07 µM.

As to `CC1CCN(c2nc(CN3CCOCC3)nc3scc(-c4cccs4)c23)CC1` [T5932815, CC1CCN(CC1)C1=C2C(SC=C2C2=CC=CS2)=NC(CN2CCOCC2)=N1], the IC50 in [3] (setting [10]) stood at 2 µM.

Take `NC12CC3CC(CC(C3)C1)C2` [Amantadine hydrochloride]: the inhibition at 1 µM in data set [1] (setting [8]) is -29%; in data set [2] (setting [9]), 6%. The viability at 1 µM in “in vitro” came to 67%.

As to `CN(C1CCCCCC1)S(=O)(=O)c1cccc(C#N)c1` [T6302141, CN(C1CCCCCC1)S(=O)(=O)C1=CC(=CC=C1)C#N], in data set [3] (setting [10]), the IC50 was found to be 2.24 µM.

Regarding `Cc1ccc(-n2nnnc2Sc2nnnn2-c2ccccc2)c(C)c1` [T5595439, CC1=CC(C)=C(C=C1)N1N=NN=C1SC1=NN=NN1C1=CC=CC=C1], in [3] (setting [10]), the IC50 amounted to 2.98 µM.

Regarding `CC(C)CCn1cnc2c1c(=O)n(CC(=O)NC(C)C)c(=O)n2Cc1ccccc1` [T5488769, CC(C)CCN1C=NC2=C1C(=O)N(CC(=O)NC(C)C)C(=O)N2CC1=CC=CC=C1], in data set [3] (setting [10]), the IC50 stood at 9.06 µM.

Turning to `CS(=O)(=O)c1ccc(NC(=O)CNc2ccccc2-c2ccccc2)cc1` [T5950416, CS(=O)(=O)C1=CC=C(NC(=O)CNC2=C(C=CC=C2)C2=CC=CC=C2)C=C1], the IC50 in [3] (setting [10]) was 2.08 µM.

Turning to `C=CCOC(=O)C1=C(C)NC(=S)NC1c1ccc(C(C)C)cc1` (stereo not shown) [T6203208, CC(C)C1=CC=C(C=C1)C1NC(=S)NC(C)=C1C(=O)OCC=C], the IC50 in [3] (setting [10]) is 4.37 µM.

Regarding `COc1ccc(CC(=O)Nc2ccc(OC)cc2)cc1` [T6053460, COC1=CC=C(CC(=O)NC2=CC=C(OC)C=C2)C=C1], the IC50 in [3] (setting [10]) amounted to 6.46 µM.

With `Cc1ccc(F)c(NC(=O)c2ccc(OC(F)F)cc2)c1` [T5506295, CC1=CC(NC(=O)C2=CC=C(OC(F)F)C=C2)=C(F)C=C1], the IC50 in [3] (setting [10]) turned out to be 1.77 µM.

Take `Cc1oc(-c2ccccc2)nc1CN1CC(C(=O)N2CCCCC2)Oc2ccccc21` (stereo not shown) [T6329376, CC1=C(CN2CC(OC3=C2C=CC=C3)C(=O)N2CCCCC2)N=C(O1)C1=CC=CC=C1]: in [3] (setting [10]), the IC50 was found to be 4.83 µM.

Consider `COc1ccc(OC)c(C2CCCN2C(=O)C2CC(=O)N(c3ccccc3)C2)c1` (stereo not shown) [T6517641, COC1=CC(C2CCCN2C(=O)C2CN(C(=O)C2)C2=CC=CC=C2)=C(OC)C=C1], for which the IC50 in data set [3] (setting [10]) was found to be 6.83 µM.

For `O=C(Cc1csc(-c2ccccn2)n1)N=c1sccn1Cc1ccccc1` [T6357587, O=C(CC1=CSC(=N1)C1=NC=CC=C1)N=C1SC=CN1CC1=CC=CC=C1], the IC50 in data set [3] (setting [10]) worked out at 8.3 µM.

Take `COc1ccccc1N1CCN(C(=O)c2cc(Cl)ccc2O)CC1` [T6328287, COC1=C(C=CC=C1)N1CCN(CC1)C(=O)C1=C(O)C=CC(Cl)=C1]: the IC50 in data set [3] (setting [10]) came out at 3.89 µM.

`Cc1nnc(C(=O)NC(C)(C)c2nc(C(=O)NCc3ccc(F)cc3)c(O)c(=O)n2C)o1` [Raltegravir, reference compound]: in data set [3] (Human immunodeficiency virus 1, read-out: IC50s during a 6-month period), the pIC50 is 8.10 to 8.68.

Regarding `Cc1ccc(S(=O)(=O)N2CCOCC2)cc1C(=O)Nc1ccccc1N1CCCC1` [T5530682, CC1=C(C=C(C=C1)S(=O)(=O)N1CCOCC1)C(=O)NC1=C(C=CC=C1)N1CCCC1], the IC50 in data set [3] (setting [10]) was found to be 8.26 µM.

Consider `Cc1cn([C@H]2C[C@H](N=[N+]=[N-])[C@@H](CO)O2)c(=O)[nH]c1=O` [3‘-Azido-3‘-deoxythymidine], for which the “Relative inhibition [%] of eGFP (mutant RT)” value in [1] (1 µM) was found to be 38%. In addition, the “Relative inhibition [%] of mCherry” value in [2] (1 µM) was determined as 73%. Further, in the data set with HEK293T-mCat1 cells, the “Viability [%]” value is on record as 89%. Also, in data set [4], the “Identified as active” value is “again identified” and the “Relative inhibition [%] of luciferase (wild-type RT)” value came to 85%. In addition, the “Reduction of the luciferase signal” value in data set [4] (AZT control at 1 µM, HEK293T-mCat1) was determined as 50%.

For `O=C(CSc1nnc(-c2cccc(Cl)c2)n1-c1ccccc1C(F)(F)F)NCc1ccco1` [T5258076, FC(F)(F)C1=C(C=CC=C1)N1C(SCC(=O)NCC2=CC=CO2)=NN=C1C1=CC(Cl)=CC=C1], the IC50 in data set [3] (setting [10]) came out at 4.76 µM.

These data come from PMC7290285 (Viruses, 2020).
